Test results: patent publication US11851426B2, “Bicyclic amines as CDK2 inhibitors” (Incyte Corporation, priority 2019, dated 2023)

Target: CDK2/Cyclin E1 (Homo sapiens (Human), UniProt P24941)
Test: CDK2/Cyclin E1 HTRF enzyme activity assay
Format: biochemical
Settings: 1 mM ATP; CDK2/Cyclin E1 0.25 nM; 60 minutes at room temperature
Procedure: Example A. CDK2/Cyclin E1 HTRF Enzyme Activity Assay
CDK2/Cyclin E1 enzyme activity assays utilize full-length human CDK2 co-expressed as N-terminal GST-tagged protein with FLAG-Cyclin E1 in a baculovirus expression system (Carna Product Number 04-165). Assays were conducted in white 384-well polystyrene plates in a final reaction volume of 8 μL. CDK2/Cyclin E1 (0.25 nM) was incubated with the compounds of the Examples (40 nL serially diluted in DMSO) in the presence of ATP (50 μM or 1 mM) and 50 nM ULight™-labeled eIF4E-binding protein 1 (THR37/46) peptide (PerkinElmer) in assay buffer (containing 50 mM HEPES pH 7.5, 1 mM EGTA, 10 mM MgCl2, 2 mM DTT, 0.05 mg/mL BSA, and 0.01% Tween 20) for 60 minutes at room temperature. The reactions were stopped by the addition of EDTA and Europium-labeled anti-phospho-4E-BP1 antibody (PerkinElmer), for a final concentration of 15 mM and 1.5 nM, respectively. HTRF signals were read after 1 hour at room temperature on a PHERAstar FS plate reader (BMG Labtech). Data was analyzed with IDBS XLFit and GraphPad Prism 5.0 software using a three or four parameter dose response curve to determine IC50 for each compound.

Row | SMILES | IC50 [µM]
1 | CS(=O)(=O)N1CCC(Nc2nc3cnc(-c4cn[nH]c4)c(N4C5CCC4CC5)n3n2)CC1 [Example 135, 5-(7-Azabicyclo[2.2.1]heptan-7-yl)-N-(1-(methylsulfonyl)piperidin-4-yl)-6-(1H-pyrazol-4-yl)-[1,2,4]triazolo[1,5-a]pyrazin-2-amine] | ≤ 0.02
2 | [2H]C([2H])([2H])C([2H])([2H])Oc1c(-c2cn[nH]c2)ccn2nc(N[C@H]3CCN(S(C)(=O)=O)C[C@H]3C)nc12 [Example 41, 8-(ethoxy-d5)-N-((3R,4S)-3-methyl-1-(methylsulfonyl)piperidin-4-yl)-7-(1H-pyrazol-4-yl)-[1,2,4]triazolo[1,5-a]pyridin-2-amine] | ≤ 0.02
3 | CC(C)Oc1c(-c2cn[nH]c2)ncn2nc(N[C@H]3CCN(S(=O)(=O)CCCCN4CC[C@@H](C(F)F)C4)C[C@H]3C)nc12 [Example 67, N-((3R,4S)-1-((4-((R)-3-(Difluoromethyl)pyrrolidin-1-yl)butyl)sulfonyl)-3-methylpiperidin-4-yl)-8-isopropoxy-7-(1H-pyrazol-4-yl)-[1,2,4]triazolo[1,5-c]pyrimidin-2-amine] | ≤ 0.02
4 | CS(=O)(=O)N1CCC(Nc2nc3cnc(-c4cn[nH]c4)c(N4CC[C@H](C(F)F)C4)n3n2)CC1 [Example 134, (S)-5-(3-(Difluoromethyl)pyrrolidin-1-yl)-N-(1-(methylsulfonyl)piperidin-4-yl)-6-(1H-pyrazol-4-yl)-[1,2,4]triazolo[1,5-a]pyrazin-2-amine] | ≤ 0.02
5 | CS(=O)(=O)N1CCC(Nc2nc3c(OCCC(F)(F)F)c(-c4cn[nH]c4)ncn3n2)CC1 [Example 46, N-(1-(Methylsulfonyl)piperidin-4-yl)-7-(1H-pyrazol-4-yl)-8-(3,3,3-trifluoropropoxy)-[1,2,4]triazolo[1,5-c]pyrimidin-2-amine] | ≤ 0.02
6 | CS(=O)(=O)N1CCC(Nc2nc3cnc(-c4cn[nH]c4)c(N4CCCC(C(F)(F)F)C4)n3n2)CC1 (stereo not shown) [Example 136, N-(1-(Methylsulfonyl)piperidin-4-yl)-6-(1H-pyrazol-4-yl)-5-(3-(trifluoromethyl)piperidin-1-yl)-[1,2,4]triazolo[1,5-a]pyrazin-2-amine] | ≤ 0.02
7 | CS(=O)(=O)N1CCC(Nc2nc3c(OCC(F)(F)F)c(-c4cn[nH]c4)ccn3n2)CC1 [Example 10, N-(1-(methylsulfonyl)piperidin-4-yl)-7-(1H-pyrazol-4-yl)-8-(2,2,2-trifluoroethoxy)-[1,2,4]triazolo[1,5-a]pyridin-2-amine] | ≤ 0.02
8 | CS(=O)(=O)N1CCC(Nc2nc3cnc(-c4cn[nH]c4)c(OC4CC(F)(F)C4)n3n2)CC1 [Example 118, 5-(3,3-Difluorocyclobutoxy)-N-(1-(methylsulfonyl)piperidin-4-yl)-6-(1H-pyrazol-4-yl)-[1,2,4]triazolo[1,5-a]pyrazin-2-amine] | ≤ 0.02
9 | C[C@@H]1CN(S(C)(=O)=O)CC[C@@H]1Nc1nc2ccc(-c3cn[nH]c3)c(OCC3CCCC3)n2n1 [Example 77, 5-(Cyclopentylmethoxy)-N-((3R,4S)-3-methyl-1-(methylsulfonyl)piperidin-4-yl)-6-(1H-pyrazol-4-yl)-[1,2,4]triazolo[1,5-a]pyridin-2-amine] | ≤ 0.02
10 | CC1CCN(c2c(-c3cn[nH]c3)ncn3nc(NC4CCN(S(C)(=O)=O)CC4)nc23)CC1 [Example 34, 8-(4-methylpiperidin-1-yl)-N-(1-(methylsulfonyl)piperidin-4-yl)-7-(1H-pyrazol-4-yl)-[1,2,4]triazolo[1,5-c]pyrimidin-2-amine] | ≤ 0.02
11 | CS(=O)(=O)N1CCC(Nc2nc3c(N4CCC(C(F)(F)F)CC4)c(-c4cn[nH]c4)ccn3n2)CC1 [Example 30, N-(1-(methylsulfonyl)piperidin-4-yl)-7-(1H-pyrazol-4-yl)-8-(4-(trifluoromethyl)piperidin-1-yl)-[1,2,4]triazolo[1,5-a]pyridin-2-amine] | ≤ 0.02
12 | CCOc1c(-c2cn[nH]c2)ccn2nc(NC3CCN(S(C)(=O)=O)CC3)nc12 [Example 2, 8-ethoxy-N-(1-(methylsulfonyl)piperidin-4-yl)-7-(1H-pyrazol-4-yl)-[1.2.4]triazolo[1,5-a]pyridin-2-amine] | ≤ 0.02
13 | CS(=O)(=O)N1CCC(Nc2nc3c(-c4ccc(F)cc4)c(-c4cn[nH]c4)ccn3n2)CC1 [Example 25, 8-(4-fluorophenyl)-N-(1-(methylsulfonyl)piperidin-4-yl)-7-(1H-pyrazol-4-yl)-[1,2,4]triazolo[1,5-a]pyridin-2-amine] | ≤ 0.02
14 | CS(=O)(=O)N1CCC(Nc2nc3cnc(-c4cn[nH]c4)c(OC4CCC4)n3n2)CC1 [Example 117, 5-Cyclobutoxy-N-(1-(methylsulfonyl)piperidin-4-yl)-6-(1H-pyrazol-4-yl)-[1,2,4]triazolo[1,5-a]pyrazin-2-amine] | ≤ 0.02
15 | [2H]C([2H])([2H])C(Oc1c(-c2cn[nH]c2)ncc2nc(N[C@H]3CCN(S(C)(=O)=O)C[C@H]3C)nn12)C([2H])([2H])[2H] [Example 138, N-((3R,4S)-3-Methyl-1-(methylsulfonyl)piperidin-4-yl)-5-((propan-2-yl-1,1,1,3,3,3-d6)oxy)-6-(1H-pyrazol-4-yl)-[1,2,4]triazolo[1,5-a]pyrazin-2-amine] | ≤ 0.02
16 | C[C@@H]1CN(S(C)(=O)=O)CC[C@@H]1Nc1nc2ccc(-c3cn[nH]c3)c(OC3CCC(F)(F)C3)n2n1 (stereo partly drawn) [Example 75, 5-((3,3-Difluorocyclopentyl)oxy)-N-((3R,4S)-3-methyl-1-(methylsulfonyl)piperidin-4-yl)-6-(1H-pyrazol-4-yl)-[1,2,4]triazolo[1,5-a]pyridin-2-amine] | ≤ 0.02
17 | CCCOc1c(-c2cn[nH]c2)ncn2nc(NC3CCN(S(C)(=O)=O)CC3)nc12 [Example 48, N-(1-(Methylsulfonyl)piperidin-4-yl)-8-propoxy-7-(1H-pyrazol-4-yl)-[1.2.4]triazolo[1,5-c]pyrimidin-2-amine] | ≤ 0.02

Next, values leading:

Row | IC50 [µM] | SMILES
18 | ≤ 0.02 | CC(C)Oc1c(-c2cn[nH]c2)ncn2nc(N[C@H]3CCN(S(=O)(=O)C4CC4)C[C@H]3C)nc12 [Example 53, N-((3R,4S)-1-(Cyclopropylsulfonyl)-3-methylpiperidin-4-yl)-8-isopropoxy-7-(1H-pyrazol-4-yl)-[1,2,4]triazolo[1,5-c]pyrimidin-2-amine]
19 | ≤ 0.02 | CS(=O)(=O)N1CCC(Nc2nc3ccc(-c4cn[nH]c4)c(OCC(F)F)n3n2)CC1 [Example 80, 5-(2,2-Difluoroethoxy)-N-(1-(methylsulfonyl)piperidin-4-yl)-6-(1H-pyrazol-4-yl)-[1,2,4]triazolo[1,5-a]pyridin-2-amine]
20 | ≤ 0.02 | CC(C)Oc1c(-c2cn[nH]c2)ncn2nc(N[C@H]3CCN(S(=O)(=O)CCCN4CCN(C)CC4)C[C@H]3C)nc12 [Example 61, 8-Isopropoxy-N-((3R,4S)-3-methyl-1-((3-(4-methylpiperazin-1-yl)propyl)sulfonyl)piperidin-4-yl)-7-(1H-pyrazol-4-yl)-[1,2,4]triazolo[1,5-c]pyrimidin-2-amine]
21 | ≤ 0.02 | CCN(C)CCCS(=O)(=O)N1CC[C@H](Nc2nc3c(OC(C)C)c(-c4cn[nH]c4)ncn3n2)[C@H](C)C1 [Example 55, N-((3R,4S)-1-((3-(Ethyl(methyl)amino)propyl)sulfonyl)-3-methylpiperidin-4-yl)-8-isopropoxy-7-(1H-pyrazol-4-yl)-[1,2,4]triazolo[1,5-c]pyrimidin-2-amine]
22 | ≤ 0.02 | CCOc1c(-c2cn[nH]c2)ccn2nc(N[C@H]3CCN(S(=O)(=O)c4cnn(C)c4)C[C@H]3C)nc12 [Example 20, 8-ethoxy-N-((3R,4S)-3-methyl-1-((1-methyl-1H-pyrazol-4-yl)sulfonyl)piperidin-4-yl)-7-(1H-pyrazol-4-yl)-[1,2,4]triazolo[1,5-a]pyridin-2-amine]
23 | ≤ 0.02 | CS(=O)(=O)N1CCC(Nc2nc3c(N4CCCCC4)c(-c4cn[nH]c4)ncn3n2)CC1 [Example 49, N-(1-(Methylsulfonyl)piperidin-4-yl)-8-(piperidin-1-yl)-7-(1H-pyrazol-4-yl)-[1,2,4]triazolo[1,5-c]pyrimidin-2-amine]
24 | ≤ 0.02 | CS(=O)(=O)N1CCC(Nc2nc3cnc(-c4cn[nH]c4)c(N4CCC[C@H](F)C4)n3n2)CC1 [Example 129, (S)-5-(3-Fluoropiperidin-1-yl)-N-(1-(methylsulfonyl)piperidin-4-yl)-6-(1H-pyrazol-4-yl)-[1,2,4]triazolo[1,5-a]pyrazin-2-amine]
25 | ≤ 0.02 | CCSc1c(-c2cn[nH]c2)ncc2nc(NC3CCN(S(C)(=O)=O)CC3)nn12 [Example 123, 5-(Ethylthio)-N-(1-(methylsulfonyl)piperidin-4-yl)-6-(1H-pyrazol-4-yl)-[1,2,4]triazolo[1,5-a]pyrazin-2-amine]
26 | ≤ 0.02 | CC(C)Oc1c(-c2cn[nH]c2)ncn2nc(N[C@H]3CCN(S(=O)(=O)CCCCN(C)C)C[C@H]3C)nc12 [Example 66]
27 | ≤ 0.02 | CS(=O)(=O)N1CCC(Nc2nc3c(N4CCCC(F)C4)c(-c4cn[nH]c4)ccn3n2)CC1 (stereo not shown) [Example 31, 8-(3-fluoropiperidin-1-yl)-N-(1-(methylsulfonyl)piperidin-4-yl)-7-(1H-pyrazol-4-yl)-[1,2,4]triazolo[1,5-a]pyridin-2-amine]
28 | ≤ 0.02 | C[C@H]1CCCN1c1c(-c2cn[nH]c2)ncc2nc(NC3CCN(S(C)(=O)=O)CC3)nn12 [Example 133, (S)-5-(2-Methylpyrrolidin-1-yl)-N-(1-(methylsulfonyl)piperidin-4-yl)-6-(1H-pyrazol-4-yl)-[1,2,4]triazolo[1,5-a]pyrazin-2-amine]
